These results are taken from DBAASP.

SMILES strings stand for the structures. In brackets after ≈: the same amount, converted by molar mass.

Test systems include Escherichia coli 780; Acinetobacter baumannii; Escherichia coli 850; Bacillus subtilis PS832; Escherichia coli MG1655; Enterococcus faecium.
What all share (experiment): ≥ marks a high value that may be exact or a test limit, other limits are often not marked, values filed in µg/mL are converted to µM
Test [1] relates to Staphylococcus aureus ATCC 9144.
For test [2], the system named is Candida albicans ATCC 90028.
Test [3] deals with Escherichia coli ATCC 700928.
Test [4] has as its system Escherichia coli NCTC 12923.
Test [5] has as its system Bacillus subtilis ATCC 13933.
Test [6] relates to Acinetobacter baumannii ATCC 17978.
Test [7] concerns Klebsiella pneumoniae NCTC 13368.
Test [8] relates to Pseudomonas aeruginosa PAO1.
Test [9] concerns Staphylococcus aureus USA 300.
For test [10], the system named is Pseudomonas syringae pv. syringae EPS 94.
Test [11] has as its system Xanthomonas campestris pv. Vesicatoria 2133-2.
Test [12] has as its system Erwinia amylovora PMV 6076.
In test [13] the test system is Staphylococcus aureus 936.
Test [14] concerns Klebsiella pneumoniae ATCC 700603.
In test [15] the test system is Staphylococcus aureus 725.
Test [16] concerns Acinetobacter baumannii ATCC 19606.
Test [17] relates to Escherichia coli ATCC 25922.
For test [18], the system named is Bacillus subtilis ATCC 23857.
For test [19], the system named is Staphylococcus aureus ATCC 25923.
Test [20] has as its system Enterococcus faecalis ATCC 29212.
The subject of test [21] is Pseudomonas aeruginosa ATCC 27853.
The subject of test [22] is Pseudomonas aeruginosa 2760.
The subject of test [23] is Staphylococcus aureus K52.
Test [24] deals with Staphylococcus aureus K35.
The subject of test [25] is Escherichia coli DH5alpha.
Test [26] deals with Staphylococcus aureus NBRC 12732.
The test system of test [27] is Staphylococcus aureus JCM 2151.
The test system of test [28] is Micrococcus luteus NBRC 12708.
Test [29] relates to Escherichia coli NBRC 14237.
Test [30] deals with Pseudomonas aeruginosa NBRC 12582.
Test [31] relates to Staphylococcus aureus 68 HER 1049.
The test system of test [32] is Escherichia coli K12 MG1655.

Regarding `CC[C@H](C)[C@H](NC(=O)CNC(=O)[C@@H](N)CCCCN)C(=O)N[C@@H](CCCN=C(N)N)C(=O)NCC(=O)N[C@@H](Cc1ccc(O)cc1)C(=O)N[C@@H](CCCCN)C(=O)NCC(=O)NCC(=O)N[C@@H](Cc1ccc(O)cc1)C(=O)N[C@@H](CS)C(=O)N[C@@H](CCCCN)C(=O)NCC(=O)N[C@@H](C)C(=O)N[C@@H](Cc1ccccc1)C(=O)N[C@@H](CCCCN)C(=O)N[C@@H](CCC(N)=O)C(=O)N[C@H](C(=O)N[C@@H](CS)C(=O)N[C@@H](CCCCN)C(=O)N[C@@H](CS)C(=O)N[C@@H](Cc1ccc(O)cc1)C(=O)O)[C@@H](C)O` [KGIRGYKGGYCKGAFKQTCKCY], the MIC in test [1] was no less than 52 µM; in test [2] it was 1.9 µM (≈ 4.67 µg/mL); in [3], no less than 48.8 µM; in test [4], no less than 52 µM; in [5], no less than 48.8 µM; in test [6], no less than 52 µM. The MIC in [7] is no less than 52 µM; in test [8], greater than 52 µM; in test [9], no less than 52 µM.
With `CC[C@H](C)[C@H](NC(=O)[C@H](CCCCN)NC(=O)[C@H](CCCCN)NC(=O)[C@H](Cc1ccccc1)NC(=O)[C@H](CC(C)C)NC(=O)[C@H](CCCCN)NC(=O)[C@@H](N)CCCCN)C(=O)N[C@@H](CC(C)C)C(=O)N[C@@H](CCCCN)C(=O)N[C@@H](Cc1ccc(O)cc1)C(=O)N[C@@H](CC(C)C)C(=O)N[C@@H](CCCCN)C(=O)N[C@@H](Cc1ccccc1)C(=O)N[C@@H](CC(C)C)C(=O)N[C@@H](Cc1cnc[nH]1)C(=O)N[C@@H](CO)C(=O)N[C@@H](C)C(=O)N[C@@H](CCCCN)C(=O)O` [KKLFKKILKYLKFLHSAK], the MIC in test [10], in test [11] and in test [12] was 3.54 µM (≈ 7.9 µg/mL) in each case.
With `CC[C@H](C)[C@H](NC(=O)[C@H](CCCCN)NC(=O)[C@H](CCCCN)NC(=O)[C@@H]1CCCN1C(=O)[C@H](CC(C)C)NC(=O)[C@H](CCCCN)NC(=O)[C@H](C)NC(=O)[C@H](CC(C)C)NC(=O)[C@@H]1CCCN1C(=O)[C@H](CCCCN)NC(=O)[C@H](CC(C)C)NC(=O)[C@H](CC(N)=O)NC(=O)[C@@H](NC(=O)[C@H](CCCCN)NC(=O)[C@@H]1CCCN1C(=O)[C@H](CC(C)C)NC(=O)[C@H](CC(C)C)NC(=O)[C@H](Cc1ccc(O)cc1)NC(=O)CNC(=O)[C@H](C)N)[C@@H](C)CC)C(=O)N[C@@H](CC(C)C)C(N)=O` [AGYLLPKINLKPLAKLPKKIL], the MIC was no less than 54.9 µM in the test with Escherichia coli 780; no less than 54.9 µM in test [13]; greater than 54.9 µM in test [14]; no less than 54.9 µM in test [15]; 54.9 µM (≈ 128 µg/mL) in test [16]; greater than 54.9 µM in [17]. Also, the MIC is no less than 54.9 µM in test [18]; no less than 54.9 µM against Acinetobacter baumannii; greater than 54.9 µM in test [19]; greater than 54.9 µM in [20]; 54.9 µM (≈ 128 µg/mL) in [21]; no less than 54.9 µM in the test on Escherichia coli 850. For the same molecule, the MIC in [22] was no less than 54.9 µM.
In the case of `CC[C@H](C)[C@H](NC(=O)[C@H](CCCN=C(N)N)NC(=O)[C@H](CCCCN)NC(=O)[C@H](CC(C)C)NC(=O)[C@H](CC(C)C)NC(=O)CNC(=O)[C@H](Cc1cnc[nH]1)NC(=O)[C@H](CCCCN)NC(=O)[C@@H](N)CC(C)C)C(=O)N[C@@H](CCCCN)C(=O)N[C@H](C(=O)N[C@@H](CC(C)C)C(=O)N[C@@H](CC(C)C)C(N)=O)[C@@H](C)O` [LKHGLLKRIKTLL], the minimum inhibitory concentration (MIC) in the test with Bacillus subtilis PS832 and in the test on Escherichia coli MG1655 was 8 µM (≈ 12.3 µg/mL) each time.
For the molecule `CC(C)C[C@H](NC(=O)[C@H](CC(C)C)NC(=O)CNC(=O)[C@H](CO)NC(=O)[C@H](CC(C)C)NC(=O)[C@@H](NC(=O)[C@H](CCCN=C(N)N)NC(=O)CNC(=O)[C@H](CC(C)C)NC(=O)[C@H](CC(C)C)NC(=O)[C@@H]1CCCN1C(=O)[C@H](CC(C)C)NC(=O)[C@@H](N)Cc1ccccc1)C(C)C)C(N)=O` [FLPLLGRVLSGLL], the MIC in [23] stood at 2.8 µM (≈ 3.91 µg/mL); in test [24], 2.8 µM (≈ 3.91 µg/mL); in the test with Enterococcus faecium, 5.6 µM (≈ 7.82 µg/mL); in test [19], 5.2 µM (≈ 7.26 µg/mL); in test [20] it was 10.5 µM (≈ 14.7 µg/mL).
Consider `CC[C@H](C)[C@H](NC(=O)[C@@H](N)Cc1ccccc1)C(=O)NCC(=O)N[C@@H](C)C(=O)N[C@@H](CC(C)C)C(=O)N[C@@H](CC(C)C)C(=O)N[C@@H](CCCN=C(N)N)C(=O)N1CCC[C@H]1C(=O)N[C@@H](C)C(=O)N[C@@H](CC(C)C)C(=O)N[C@@H](CCCCN)C(=O)N[C@@H](CC(C)C)C(=O)N[C@@H](CC(C)C)C(=O)N[C@@H](C)C(N)=O` [FIGALLRPALKLLA], for which the MIC in test [25] was no less than 33.4 µM; in test [26], 12.5 µM (≈ 18.7 µg/mL); in test [27], 6.48 µM (≈ 9.69 µg/mL); in [28], 25 µM (≈ 37.4 µg/mL); in test [29] it was 12.5 µM (≈ 18.7 µg/mL); in test [30] it was no less than 50 µM.
As to `CC[C@H](C)[C@H](NC(=O)[C@H](CCCN=C(N)N)NC(=O)[C@H](CCCN=C(N)N)NC(=O)[C@H](CC(C)C)NC(=O)[C@H](CCCCN)NC(=O)[C@H](CCCCN)NC(=O)[C@H](Cc1c[nH]c2ccccc12)NC(=O)[C@H](CCCCN)NC(=O)[C@H](CCCCN)NC(=O)[C@H](Cc1c[nH]c2ccccc12)NC(=O)[C@@H](N)Cc1ccc(O)cc1)C(=O)N[C@@H](Cc1ccccc1)C(=O)N[C@@H](CCSC)C(=O)N[C@@H](CC(C)C)C(=O)N[C@H](C(=O)O)C(C)C` [YWKKWKKLRRIFMLV], the values for the MIC in test [31] and in [32] were 3.82 µM (≈ 8 µg/mL) and 0.954 µM (≈ 2 µg/mL), respectively.

Usually MIC stands for the least concentration at which growth counts as inhibited. A high value points to a less susceptible organism.
